# Data reported in publication PMC9421653 (Journal of Medicinal Chemistry, 2022).
# Entries after “also recorded” stand apart in the source; their conditions may differ.
# How the values were obtained:
# [1] = physchem
# From the text: DPI = 4,5-Diphenylimidazole
# (2 pictures or pasted objects on this page, not shown here)
# [2] = in vitro; settings: human, microsomes
# [3] = Log D7.4 (distribution coefficient); assay type: physicochemical; settings: pH 7.4
# [4] = target: T1, human GPR84 (Homo sapiens, UniProt P04899+Q9NQS5); test: biochemical; assay type: biochemical; settings: for GTPγS (pIC50): [35S]GTPγS assay, negative log of the IC50 in molar, mean ± SEM; for LLE: LLE = pIC50 – CLog P
# T1 construct: expressed in transfected cells; host or cells: Flp-In T-REx 293 cells, doxycycline-induced; membrane preparations
# [5] = Mouse hepatocyte stability; assay type: in vitro ADME; settings: hepatocytes, read-out: mouse heps t1/2
# [6] = Mouse plasma protein binding; assay type: in vitro ADME; settings: read-out: mouse PPB
# [7] = target: T2, human GPR84 (Homo sapiens, UniProt Q9NQS5); test: biochemical; assay type: biochemical; settings: [35S]GTPγS assay; negative log of the IC50 in molar; mean ± SEM; read-out: GTPγS (pIC50) (converted)
# T2 construct: expressed in transfected cells; host or cells: Flp-In T-REx 293 cells, doxycycline-induced; membrane preparations
# [8] = target: T3, human FFAR2 (Homo sapiens, UniProt O15552); test: [35S]GTPγS binding, block of C3 (propionate) at FFAR2; assay type: biochemical; settings: tested at 10 μM
# T3 construct: expressed in transfected cells; host or cells: Flp-In T-REx 293 cells, induced; membrane preparations
# T3 sequence (O15552 1-330): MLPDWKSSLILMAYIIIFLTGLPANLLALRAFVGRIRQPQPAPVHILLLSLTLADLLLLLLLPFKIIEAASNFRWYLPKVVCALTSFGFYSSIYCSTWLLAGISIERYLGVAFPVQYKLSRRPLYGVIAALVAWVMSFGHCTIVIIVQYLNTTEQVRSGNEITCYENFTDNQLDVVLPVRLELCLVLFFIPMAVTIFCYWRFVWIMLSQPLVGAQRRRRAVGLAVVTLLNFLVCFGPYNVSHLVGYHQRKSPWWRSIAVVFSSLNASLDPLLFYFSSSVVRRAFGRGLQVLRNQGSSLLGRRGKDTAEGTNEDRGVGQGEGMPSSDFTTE
# [9] = In vivo mouse PK, PO dosing; settings: for Tmax / AUCall / Cmax: PO (10 mg/kg); for AUCall / Cmax / bioavailability: CV % in parenthesis; for bioavailability: male, C57BL/6J, plasma, PO (10 mg/kg) vs IV (1 mg/kg)
# Experimental: (§1) Mouse pharmacokinetic studies were carried out by Xenogesis Ltd. (Nottingham, U.K.). All life phases were conducted in accordance with the local Ethics Review process.
# (§2) Male C57BL/6J mice (n = 3, Charles River, U.K.) were orally administered with a dose of 10 mg/kg of the appropriate compound (formulation 0.5% w/v methylcellulose in water). […] Plasma concentrations were determined by LC/MS/MS. LC/MS/MS analysis was performed using a Thermo TSQ Quantiva with Thermo Vanquish UPLC system on a Luna Omega C18 column. The plasma concentrations were simulated by nonparametric analysis from the plasma concentrations obtained in the PK study using Phoenix WinNonlin.
# [10] = tested on: mouse plasma protein; test: Mouse plasma protein binding; assay type: in vitro ADME
# [11] = target: T4, human FFAR3 (Homo sapiens, UniProt O14843); test: [35S]GTPγS binding, block of C3 (propionate) at FFAR3; assay type: biochemical; settings: tested at 10 μM
# T4 construct: expressed in transfected cells; host or cells: Flp-In T-REx 293 cells, induced; membrane preparations
# T4 sequence (O14843 1-346): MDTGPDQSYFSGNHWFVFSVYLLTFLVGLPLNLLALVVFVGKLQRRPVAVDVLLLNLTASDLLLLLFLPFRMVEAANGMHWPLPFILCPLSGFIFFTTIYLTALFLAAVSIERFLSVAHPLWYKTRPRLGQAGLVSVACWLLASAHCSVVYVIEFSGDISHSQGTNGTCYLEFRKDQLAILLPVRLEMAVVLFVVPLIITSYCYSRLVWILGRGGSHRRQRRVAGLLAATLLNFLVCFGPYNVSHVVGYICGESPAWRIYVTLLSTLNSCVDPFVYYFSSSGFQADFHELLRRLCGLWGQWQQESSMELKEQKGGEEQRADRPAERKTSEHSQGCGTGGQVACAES
# [12] = In vivo mouse PK, IV dosing; settings: IV (1 mg/kg), CV % in parenthesis
# Experimental: as §1
# as §2, with “intravenously” for “orally”, “1” for “10”, “5% v/v DMSO in 20%” for “0.5%”, “HPCD” for “methylcellulose”
# [13] = pH 7.4, Kinetic Solubility, Mean, PBS pH7.4 in 2% DMSO by LC-MS
# [14] = pH 7.4, Kinetic Solubility, Mean, PBS pH7.4 in 2% DMSO by plate reader
# [15] = pH 7.4, Kinetic Solubility, R=1, PBS pH7.4 in 2% DMSO by LC-MS, replicate 1
# [16] = pH 7.4, Kinetic Solubility, R=1, PBS pH7.4 in 2% DMSO by plate reader, replicate 1
# [17] = pH 7.4, Kinetic Solubility, R=2, PBS pH7.4 in 2% DMSO by LC-MS, replicate 2
# [18] = pH 7.4, Kinetic Solubility, R=2, PBS pH7.4 in 2% DMSO by plate reader, replicate 2
# [19] = pH 7.4, kinetic solubility, PBS pH7.4 in 2% DMSO
# T1 sequence (Q9NQS5+P04899 fused): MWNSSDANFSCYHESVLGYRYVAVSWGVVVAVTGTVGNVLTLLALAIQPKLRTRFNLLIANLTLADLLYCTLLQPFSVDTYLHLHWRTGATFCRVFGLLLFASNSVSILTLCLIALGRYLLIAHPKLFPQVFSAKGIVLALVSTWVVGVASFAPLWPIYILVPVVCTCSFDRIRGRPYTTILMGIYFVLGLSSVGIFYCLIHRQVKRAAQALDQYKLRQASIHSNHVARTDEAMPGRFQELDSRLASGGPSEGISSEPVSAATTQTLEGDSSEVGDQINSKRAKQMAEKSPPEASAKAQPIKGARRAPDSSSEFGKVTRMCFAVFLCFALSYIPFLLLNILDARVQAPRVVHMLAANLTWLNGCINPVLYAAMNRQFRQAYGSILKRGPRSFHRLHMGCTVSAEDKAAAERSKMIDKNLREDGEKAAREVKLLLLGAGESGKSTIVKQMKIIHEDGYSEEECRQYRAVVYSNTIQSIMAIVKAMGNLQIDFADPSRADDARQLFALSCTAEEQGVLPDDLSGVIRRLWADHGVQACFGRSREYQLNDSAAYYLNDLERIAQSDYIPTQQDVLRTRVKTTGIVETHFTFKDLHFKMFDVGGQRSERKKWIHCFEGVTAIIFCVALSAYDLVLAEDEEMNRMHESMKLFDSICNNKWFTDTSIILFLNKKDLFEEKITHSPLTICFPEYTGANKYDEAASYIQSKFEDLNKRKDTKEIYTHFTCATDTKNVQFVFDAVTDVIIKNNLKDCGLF
# T2 sequence (Q9NQS5+P04899 fused): as above
smiles,measurement,setting,value
"c1ccc(-c2nc[nH]c2-c2ccccc2)cc1 [DPI, 4,5-Diphenylimidazole, reference compound]",solubility kinetic,[1]; [13],27 µM
same,solubility kinetic,[1]; [14],30 µM
same,solubility kinetic,[1]; [15],25 µM
same,solubility kinetic,[1]; [16],28 µM
same,solubility kinetic,[1]; [17],28 µM
same,solubility kinetic,[1]; [18],32 µM
"CNC(=O)c1ccc(-c2nnc(Cc3c[nH]c4cnccc34)nc2-c2ccccc2)cc1 [Compound 68, 4-(3-((1H-Pyrrolo[2,3-c]pyridin-3-yl)methyl)-5-phenyl-1,2,4-triazin-6-yl)-N-methylbenzamide]",half-life,[2],39.9 min
same,logD,[3],2.71
same,GTPγS (pIC50),[4],7.29 ± 0.05
same,half-life,[5],12.5 min
same,fraction unbound,[6],0.038
same,solubility kinetic,[1]; [16],149 µM
same,solubility kinetic,[1]; [18],143 µM
same,solubility kinetic,[1]; [19],146 µM
"O=C(NCCO)c1ccc(-c2nc(Cc3c[nH]c4ccccc34)nnc2-c2ccccc2)cc1 [Compound 85, 4-(3-((1H-Indol-3-yl)methyl)-6-phenyl-1,2,4-triazin-5-yl)-N-(2-hydroxyethyl)benzamide]",IC50,[7],28.8 nM
"NC(=O)CNC(=O)c1ccc(-c2nc(Cc3c[nH]c4ccccc34)nnc2-c2ccccc2)cc1 [Compound 90, 4-(3-((1H-Indol-3-yl)methyl)-6-phenyl-1,2,4-triazin-5-yl)-N-(2-amino-2-oxoethyl)benzamide]",IC50,[7],380 nM
"O=C(c1ccc(-c2nc(Cc3c[nH]c4ccccc34)nnc2-c2ccccc2)cc1)N1CCOCC1 [Compound 83, (4-(3-((1H-Indol-3-yl)methyl)-6-phenyl-1,2,4-triazin-5-yl)phenyl)(morpholino)methanone]",IC50,[7],209 nM
"CC(=O)N1CCN(c2ccc(OCC3COC(Cn4ccnc4)(c4ccc(Cl)cc4Cl)O3)cc2)CC1 (stereo not shown) [Ketoconazole, reference compound]",solubility kinetic,[1]; [13],103 µM
same,solubility kinetic,[1]; [14],129 µM
same,solubility kinetic,[1]; [15],101 µM
same,solubility kinetic,[1]; [16],128 µM
same,solubility kinetic,[1]; [17],105 µM
same,solubility kinetic,[1]; [18],129 µM
"CN1CCN(C(=O)c2ccc(-c3nc(Cc4c[nH]c5ccccc45)nnc3-c3ccccc3)cc2)CC1 [Compound 86, (4-(3-((1H-Indol-3-yl)methyl)-6-phenyl-1,2,4-triazin-5-yl)phenyl)(4-methylpiperazin-1-yl)methanone]",IC50,[7],955 nM
"Cc1nc(Cc2c[nH]c3ccccc23)nnc1-c1ccccc1 [Compound 29, 3-[(5-Methyl-6-phenyl-1,2,4-triazin-3-yl)methyl]-1H-indole]",IC50,[7],5620 nM
same,LLE,[4],1.99
"Cc1nnc(Cc2c[nH]c3ccccc23)nc1-c1ccccc1 [Compound 28, 3-[(6-Methyl-5-phenyl-1,2,4-triazin-3-yl)methyl]-1H-indole]",IC50,[7],10200 nM
same,LLE,[4],1.73
"CC(=O)NCCNC(=O)c1ccc(-c2nc(Cc3c[nH]c4ccccc34)nnc2-c2ccccc2)cc1 [Compound 88, 4-(3-((1H-Indol-3-yl)methyl)-6-phenyl-1,2,4-triazin-5-yl)-N-(2-acetamidoethyl)benzamide]",IC50,[7],209 nM
"c1ccc(-c2nc(Cc3c[nH]c4ccccc34)nnc2-c2ccc(CN3CCOCC3)cc2)cc1 [Compound 42, 4-(4-(3-((1H-Indol-3-yl)methyl)-5-phenyl-1,2,4-triazin-6-yl)benzyl)morpholine]",block of the actions of the C3 fatty acid propionate at FFAR2,[8],no ability to block; also recorded: did not block
same,half-life,[2],12.8 min
same,logD,[3],3.84
same,Tmax,[9],60 min
same,AUCall,[9],1590 (18.7) ng/mL·h
same,Cmax,[9],402 (31.8) ng/mL
same,bioavailability,[9],36.8%
same,GTPγS (pIC50),[4],8.28 ± 0.11
same,half-life,[5],16 min
same,mouse PPB,[10],<1 %free
same,block of the actions of the C3 fatty acid propionate at FFAR3,[11],no ability to block; also recorded: did not block
same,AUCall,[12],420 (12.5) ng/mL·h
same,C0,[12],394 (19.1) ng/mL
same,CL,[12],38.9 (13.9) mL/min/kg
same,Vss,[12],7.24 (9.2) L/kg
same,half-life,[12],2.51 (6.55) h
same,solubility kinetic,[1]; [16],12 µM
same,solubility kinetic,[1]; [18],16 µM
same,solubility kinetic,[1]; [19],14 µM
"c1ccc(-c2nnc(Cc3c[nH]c4ccccc34)nc2-c2ccccc2)cc1 [Compound 4, 3-((5,6-Diphenyl-1,2,4-triazin-3-yl)methyl)-1H-indole]",block of the actions of the C3 fatty acid propionate at FFAR2,[8],no ability to block; also recorded: did not block
same,half-life,[2],21.8 min
same,logD,[3],4.24
same,half-life,[5],4.4 min
same,mouse PPB,[10],<1 %free
same,block of the actions of the C3 fatty acid propionate at FFAR3,[11],no ability to block; also recorded: did not block
same,solubility kinetic,[1]; [15],1.5 µM
same,solubility kinetic,[1]; [17],1.3 µM
same,solubility kinetic,[1]; [19],1.4 µM
"O=C(NCCO)c1ccc(-c2nnc(Cc3c[nH]c4ccccc34)nc2-c2ccccc2)cc1 [Compound 76, 4-(3-((1H-Indol-3-yl)methyl)-5-phenyl-1,2,4-triazin-6-yl)-N-(2-hydroxyethyl)benzamide]",block of the actions of the C3 fatty acid propionate at FFAR2,[8],no ability to block; also recorded: did not block
same,half-life,[2],57.2 min
same,logD,[3],3.09
same,Tmax,[9],60 min
same,AUCall,[9],3160 (8.82) ng/mL·h
same,Cmax,[9],1080 (16.1) ng/mL
same,bioavailability,[9],41.5%
same,GTPγS (pIC50),[4],7.46 ± 0.07
same,half-life,[5],47.3 min
same,fraction unbound,[6],0.011
same,block of the actions of the C3 fatty acid propionate at FFAR3,[11],no ability to block; also recorded: did not block
same,AUCall,[12],757 (10.8) ng/mL·h
same,C0,[12],1170 (29.6) ng/mL
same,CL,[12],22.0 (11.3) mL/min/kg
same,Vss,[12],1.81 (15.2) L/kg
same,half-life,[12],1.22 (13.5) h
same,solubility kinetic,[1]; [16],59 µM
same,solubility kinetic,[1]; [18],62 µM
same,solubility kinetic,[1]; [19],61 µM
"CN1CCN(C(=O)c2ccc(-c3nc(Cc4c[nH]c5ccccc45)nnc3-c3ccccc3)cc2)CC1=O [Compound 89, 4-(4-(3-((1H-Indol-3-yl)methyl)-6-phenyl-1,2,4-triazin-5-yl)benzoyl)-1-methylpiperazin-2-one]",IC50,[7],490 nM
"COCCNC(=O)c1ccc(-c2nc(Cc3c[nH]c4ccccc34)nnc2-c2ccccc2)cc1 [Compound 87, 4-(3-((1H-Indol-3-yl)methyl)-6-phenyl-1,2,4-triazin-5-yl)-N-(2-methoxyethyl)benzamide]",IC50,[7],72.4 nM
"CN(C)CCNC(=O)c1ccc(-c2nc(Cc3c[nH]c4ccccc34)nnc2-c2ccccc2)cc1 [Compound 84, 4-(3-((1H-Indol-3-yl)methyl)-6-phenyl-1,2,4-triazin-5-yl)-N-(2-(dimethylamino)ethyl)benzamide]",IC50,[7],1000 nM
